Starred links: 1 amine or outer side, 2 acyl side, 3 side chain; linkers in the order of their positions; H or OH if unused. Non-standard residues stand in square brackets, D forms with d. Residues, ends and D or L forms follow the SMILES beside them. Groups on a side chain read outwards from the residue. dPhe(4-NHCONH2) = NC(=O)Nc1ccc(C[C@@H](N)C(=O)O)cc1; Phe(4-NHCONH2) = NC(=O)Nc1ccc(C[C@H](N)C(=O)O)cc1; dPhe(4-NH2) = Nc1ccc(C[C@@H](N)C(=O)O)cc1; dPhe(4-Cl) = N[C@H](Cc1ccc(Cl)cc1)C(=O)O; Phe(4-NH2) = Nc1ccc(C[C@H](N)C(=O)O)cc1; d2Nal = N[C@H](Cc1ccc2ccccc2c1)C(=O)O; Lys(iPr) = CC(C)NCCCC[C@H](N)C(=O)O; d3Pal = N[C@H](Cc1cccnc1)C(=O)O; CO = O=C([*:1])[*:2]

Data set [1] concerns secretion of LH. The data set is described as follows: in vivo rat LH suppression test (circulating LH levels in castrated male rats after sc injection). The note with it: for effectiveness in suppression of LH compared with Acyline, day 1 through day 3: days 1-3; for effectiveness in suppression of LH compared with Acyline, first two days: days 1-2; for suppression of LH compared with Acyline at days 3 and 4 (72 and 96 hours; after the first 2 days): days 3-4; for effectiveness in suppression of LH compared with Acyline, day 1 through day 4 (96 hours): days 1-4. Also on record: species or system castrated male Sprague-Dawley rats. As to the method: The peptide is assayed in vivo to determine its effectiveness to suppress the secretion of LH in rats. Measurement of circulating LH levels in castrated male Sprague-Dawley rats treated subcutaneously with the peptide is carried out as reported in C. Rivier et al. Biol. Reproduc., 1983, 29, 374-378. The peptides are first dissolved at a concentration of 1.0 or 10 mg/ml in bacteriostatic water and then further diluted in 0.04 M phosphate buffer containing 0.1% BSA. Subsequent dilutions are made in phosphate buffer. The peptides are injected sc into 5 rats, and blood samples (300 μl) are collected under metotane anesthesia. Sera (50 μl) are tested for LH levels in duplicate using reagents provided by the National Pituitary and Hormone Distribution Program of the NIDDK.

Data set [2] can be described thus: hydrophilicity by RP-HPLC retention time (TEAP pH 7.0 / CH3CN gradient). The format is physicochemical. The note with it: for hydrophilicity compared with Azaline B: RP-HPLC elution.

Regarding “Ac-D-2Nal-D-4Cpa-D-3Pal-Ser-4Aph(D-hydroorotyl)-D-4Amf(Ac)-Leu-ILys-Pro-D- Ala-NH2 [Example 5A]”, the “suppression of LH compared with Acyline at 96 hours / 4 days (after day 3)” value in data set [1] (50 micrograms sc, 96 hours) is “somewhat superior to Acyline”. Also, in data set [1] (50 micrograms sc), the “effectiveness in suppression of LH compared with Acyline, day 1 through day 3” value is listed as “substantially the same as Acyline”.
In the case of `CNC(=O)Nc1ccc(C[C@H](NC(=O)[C@H](CO)NC(=O)[C@@H](Cc2cccnc2)NC(=O)[C@@H](Cc2ccc(Cl)cc2)NC(=O)[C@@H](Cc2ccc3ccccc3c2)NC(C)=O)C(=O)N[C@H](Cc2ccc(NC(=O)NC)cc2)C(=O)N[C@@H](CC(C)C)C(=O)N[C@@H](CCCCNC(C)C)C(=O)N2CCC[C@H]2C(=O)N[C@H](C)C(N)=O)cc1` [Example 1M, Ac-β-D-2Nal-D-4Cpa-D-3Pal-Ser-4Aph(methylcarbamoyl)-D-4Aph(methylcarbamoyl)-Leu-Lys(isopropyl)-Pro-D-Ala-NH2] (Ac-[d2Nal][dPhe(4-Cl)][d3Pal]S[Phe(4-NH2)]([CO-NHMe])[dPhe(4-NH2)]([CO-NHMe])L[Lys(iPr)]P[dA]-NH2), in data set [1] (50 micrograms sc), the “effectiveness in suppression of LH compared with Acyline, first two days” value was “about as effective as Acyline”; the “suppression of LH compared with Acyline at days 3 and 4 (72 and 96 hours; after the first 2 days)” value is “begins to drop off somewhat”.
Turning to “Ac-β-D-2Nal-D-4Cpa-D-3Pal-Ser-4Amf(hydroorotyl)-D-4Aph(acetyl)-Leu-Lys(isopropyl)-Pro-D-Ala-NH2 [Example 1F]”, in data set [1] (50 micrograms sc), the “duration of bioactivity for the suppression of LH (rating in words)” value (from here on “duration of bioactivity … (rating in words)”) was “long-acting” and the “effectiveness in suppression of LH compared with Acyline, day 1 through day 4 (96 hours)” value was “about as effective as Acyline”.
With “Ac-β-D-2Nal-D-4Cpa-D-3Pal-Ser-4Aph(hydroorotyl)-D-4Aph(D-hydroorotyl)-Leu-Lys(isopropyl)-Pro-D-Ala-NH2 [Example 1H]”, in data set [1] (50 micrograms sc), the “duration of bioactivity … (rating in words)” value is listed as “very long-acting” and the “effectiveness in suppression of LH compared with Acyline, day 1 through day 3” value is given as “about as effective as Acyline”. In addition, the “suppression of LH compared with Acyline at 96 hours / 4 days (after day 3)” value in data set [1] (50 micrograms sc, 96 hours) is reported as “substantially more effective than Acyline”. Moreover, in data set [2], the “hydrophilicity compared with Azaline B” value is listed as “more hydrophilic than Azaline B”.
On to “Ac-D-2Nal-D-4Cpa-D-3Pal-Ser-4Aph(D-hydroorotyl)-D-4Amf(Cbm)-Leu-ILys-Pro-D-Ala-NH2 [Example 5]”, for which, in data set [1] (50 micrograms sc), the “effectiveness in suppression of LH compared with Acyline, first two days” value was “about as long as Acyline”; the “suppression of LH compared with Acyline at days 3 and 4 (72 and 96 hours; after the first 2 days)” value is “some lesser degree of suppression”.
As for “methylcarbamoyl-β-D-2Nal-D-4Cpa-D-3Pal-Ser-4Aph(hydroorotyl)-D-4Aph(acetyl)-Leu-Lys(isopropyl)-Pro-D-Ala-NH2 [Example 1J]”, in data set [1] (50 micrograms sc), the “duration of bioactivity … (rating in words)” value is on record as “very long-acting” and the “effectiveness in suppression of LH compared with Acyline, day 1 through day 3” value is on record as “about as effective as Acyline”. In data set [1] (50 micrograms sc, 96 hours), the “how much more effective than Acyline in suppression of LH after 96 hours” value is listed as roughly 50%. The “hydrophilicity compared with Azaline B” value in data set [2] is “more hydrophilic than Azaline B”.
Take “Ac-β-D-2Nal-D-4Cpa-D-3Pal-Ser-4Amf(hydroorotyl)-D-4Aph(carbamoyl)-Leu-Lys(isopropyl)-Pro-D-Ala-NH2 [Example 6A]”: in data set [1] (50 micrograms sc), the “activity in suppression of LH secretion compared with Acyline after 1 day” value is “as active as Acyline” and the “activity in suppression of LH secretion compared with Acyline after 2 days” value is reported as “nearly as active”. Moreover, the “activity in suppression of LH secretion compared with Acyline after 3 days” value in data set [1] (50 micrograms sc, 3 days) is “somewhat less active”. In data set [1] (50 micrograms sc, 96 hours), the “suppression of LH compared with Acyline at 96 hours / 4 days (after day 3)” value is listed as “about the same activity as Acyline”.
On to “Ac-β-D-2Nal-D-4Cpa-D-3Pal-Ser-4Amf(hydroorotyl)-D-4Aph(methylcarbamoyl)-Leu-Lys(isopropyl)-Pro-D-Ala-NH2 [Example 6B]”, for which, in data set [1] (50 micrograms sc), the “activity in suppression of LH secretion compared with Acyline after 1 day” value is recorded as “as active as Acyline”; the “activity in suppression of LH secretion compared with Acyline after 2 days” value is on record as “about as active”; the “suppression of LH compared with Acyline at days 3 and 4 (72 and 96 hours; after the first 2 days)” value is “significantly lesser degree of suppression”.
Take “Ac-β-D-2Nal-D-4Cpa-D-3Pal-Ser-4Aph(hydroorotyl)-D-4Aph(hydroorotyl)-Leu-Lys(isopropyl)-Pro-D-Ala-NH2 [Example 1G]”: in data set [1] (50 micrograms sc), the “duration of bioactivity … (rating in words)” value is given as “long-acting” and the “effectiveness in suppression of LH compared with Acyline, day 1 through day 4 (96 hours)” value is “about as effective as Acyline”. For the same compound, in data set [2], the “hydrophilicity compared with Azaline B” value is “more hydrophilic than Azaline B”.
“Ac-D-2Nal-D-4Cpa-D-3Pal-Ser-4Aph(L-Imz)-D-4Amf(carbamoyl)-Leu-ILys-Pro-D-Ala-NH2 [Example 3B]”: in data set [1] (50 micrograms sc), the “duration of bioactivity … (rating in words)” value was “long duration” and the “effectiveness in suppression of LH compared with Acyline, day 1 through day 3” value is “substantially the same as Acyline”. Besides, the “suppression of LH compared with Acyline at 96 hours / 4 days (after day 3)” value in data set [1] (50 micrograms sc, 96 hours) is on record as “somewhat superior”.
For “Ac-D-2Nal-D-4Cpa-D-3Pal-Ser-4Aph(hydroorotyl)-D-Cit-Leu-ILys-Pro-D-Ala-NH2 [Example 2]”, the “suppression of LH at 3 days (comparator apparently Cetrorelix)” value in data set [1] (tested as in Example 1, 3 days) is “marginally better”. Besides, the “suppression of LH at 96 hours (comparator apparently Cetrorelix)” value in data set [1] (tested as in Example 1, 96 hours) is given as “substantially better”. Further, the “duration of bioactivity for suppression of LH secretion compared with Cetrorelix” value in data set [1] (tested as in Example 1, dose not given) was “as long duration of bioactivity as Cetrorelix”. Also, the “hydrophilicity compared with Cetrorelix” value in data set [2] was “more hydrophilic than Cetrorelix”.
Consider “Ac-β-D-2Nal-D-Cpa-D-3Pal-Ser-4Aph(D-hydroorotyl)-D-4Aph(acetyl)-Leu-Lys(isopropyl)-Pro-D-Ala-NH2 [Example 1D]”, for which, in data set [1] (50 micrograms sc), the “duration of bioactivity … (rating in words)” value is “long-acting” and the “effectiveness in suppression of LH compared with Acyline, day 1 through day 4 (96 hours)” value is listed as “about as effective as Acyline”.
Take “Ac-D-2Nal-D-4Cpa-D-3Pal-Ser-4Aph(D/L-2-imidazolidone-4-carbonyl)-D-4Aph(Ac)-Leu-ILys-Pro-D-Ala-NH2 [Example 3]”: in data set [1] (50 micrograms sc), the “duration of bioactivity … (rating in words)” value is on record as “long duration”; the “suppression of LH compared with Acyline at days 3 and 4 (72 and 96 hours; after the first 2 days)” value is recorded as “marginally better”.
Take `CC(=O)N[C@H](Cc1ccc2ccccc2c1)C(=O)N[C@H](Cc1ccc(Cl)cc1)C(=O)N[C@H](Cc1cccnc1)C(=O)N[C@@H](CO)C(=O)N[C@@H](Cc1ccc(NC(N)=O)cc1)C(=O)N[C@H](Cc1ccc(NC(N)=O)cc1)C(=O)N[C@@H](CC(C)C)C(=O)N[C@@H](CCCCNC(C)C)C(=O)N1CCC[C@H]1C(=O)N[C@H](C)C(N)=O` [Example 1L, Ac-β-D-2Nal-D-4Cpa-D-3Pal-Ser-4Aph(carbamoyl)-D-4Aph(carbamoyl)-Leu-Lys(isopropyl)-Pro-D-Ala-NH2] (Ac-[d2Nal][dPhe(4-Cl)][d3Pal]S[Phe(4-NHCONH2)][dPhe(4-NHCONH2)]L[Lys(iPr)]P[dA]-NH2): in data set [1] (50 micrograms sc), the “duration of bioactivity … (rating in words)” value was “long-acting” and the “effectiveness in suppression of LH compared with Acyline, day 1 through day 4 (96 hours)” value is “about as effective as Acyline”.
On to “Acetyl-β-D-2Nal-D-4Cpa-D-3Pal-Ser-4Aph(hydroorotyl)-D-3Pal-Leu-Lys(isopropyl)-Pro-D-Ala-NH2 [Example 1K]”, for which, in data set [1] (50 micrograms sc), the “duration of bioactivity … (rating in words)” value is recorded as “very long-acting” and the “effectiveness in suppression of LH compared with Acyline, day 1 through day 3” value was “about as effective as Acyline”. In data set [1] (50 micrograms sc, 96 hours, comparator Acyline 50 micrograms), the “LH levels after 96 hours as percentage of the LH levels of rats injected with Acyline” value is “about 35%”.
Turning to “Ac-β-D-2Nal-D-Cpa-D-3Pal-Ser-4Aph(D/L-hydroorotyl)-D-4Aph(acetyl)-Leu-Lys(isopropyl)-Pro-D-Ala-NH2 [Example 1C]”, in data set [1] (50 micrograms sc), the “duration of bioactivity … (rating in words)” value was “long-acting” and the “effectiveness in suppression of LH compared with Acyline, day 1 through day 4 (96 hours)” value was “about as effective as Acyline”.
For “Ac-β-D-2Nal-D-Cpa-D-3Pal-Ser-4Aph(hydroorotyl)-D-4Aph(acetyl)-Leu-Lys(isopropyl)-Pro-D-Ala-NH2 [Example 1B]”, in that order: “very long-acting” and “about as effective as Acyline”.
As for “Ac-β-D-2Nal-D-4Cpa-D-3Pal-Ser-4Amf(hydroorotyl)-D-4Amf(acetyl)-Leu-Lys(isopropyl)-Pro-D-Ala-NH2 [Example 6]”, in data set [1] (50 micrograms sc), the “duration of bioactivity … (rating in words)” value is “long-acting”; the “effectiveness in suppression of LH compared with Acyline, first two days” value is “about the same as Acyline”; the “suppression of LH compared with Acyline at days 3 and 4 (72 and 96 hours; after the first 2 days)” value is listed as “nearly equal to that of Acyline”.
As to “Ac-β-D-2Nal-D-4Cpa-D-3Pal-Ser-4Amf(D-hydroorotyl)-D-4Aph(acetyl)-Leu- Lys(isopropyl)-Pro-D-Ala-NH2 [Example 6C]”, the “activity in suppression of LH secretion compared with Acyline after 3 days” value in data set [1] (50 micrograms sc, 3 days) is recorded as “substantially less effective than Acyline”. Moreover, the “suppression of LH compared with Acyline at 96 hours / 4 days (after day 3)” value in data set [1] (50 micrograms sc, 96 hours) is listed as “continues to significantly drop in biopotency”. Besides, the “effectiveness in suppression of LH compared with Acyline, first two days” value in data set [1] (50 micrograms sc) is reported as “substantially as effective”.
For “Ac-D-2Nal-D-4Cpa-D-3Pal-Ser-4Aph(hydroorotyl)-D-4Amf(MeCbm)-Leu-ILys-Pro-D-Ala-NH2 [Example 4]”, in data set [1] (50 micrograms sc), the “duration of bioactivity … (rating in words)” value is “very long-acting” and the “suppression of LH secretion compared with Acyline (time not given)” value is reported as “better suppression of LH secretion than Acyline”.
